{
  "source": "patent US20220112515A1",
  "about": "“Method for Producing Virus-Infected Cell Line and Animal Model” (INDUSTRY-ACADEMIC COOPERATION FOUNDATION, YONSEI UNIVERSITY, priority 2018, published 2022)",
  "key": {"Hepa1c1c7 cell line [1]": {"test_system": "Hepa1c1c7 cell line", "conditions": "HCV mixed with tCA (mouse hepatocytes)", "text": "(§1) For production of enveloped virus-infected cell line models, HBV (1×10^6 copies/ml/well of HBV) isolated in Example 1 above was mixed with 100 μmol/L of taurochenodeoxycholic acid (hereinafter referred to as ‘tCDCA’), and HCV (1×10^6 IU/ml/well of HCV) isolated in Example 1 above was mixed with tCDCA or taurocholic acid (hereinafter referred to as ‘tCA’). Here, tCA was mixed with HCV and used to infect mouse hepatocytes; and tCDCA was used in all other cases.\n(§2) A cell line (HepG2, Huh-7, A549, A-498, MDA-MB-231, Jurkat, HeLa, Hepa1c1c7, EL4, H4-II-E, LA-4, LC540, or RAG cell line) at 5×10^6 cells/ml was dispensed into each well of a 6-well plate, and culture was performed for 24 hours. Then, the tCDCA or tCA solution mixed with HBV or HCV was added thereto, and culture was further performed for 24 hours. Here, as a control, a group, to which only HBV or HCV was added without the tCDCA or tCA solution, was used. […] Finally, the cell culture medium was treated with 100 μmol/L of tCDCA or tCA, and culture was further performed for 3 days, thereby producing a virus-infected cell line model (hereinafter referred to as “infected cell line”).\n(§3) The levels of HCV core and HCV RNA present were measured in each of the HCV-infected cell lines produced and the culture medium collected therefrom. […]"}, "H4-II-E cell line [2]": {"test_system": "H4-II-E cell line", "conditions": "HCV mixed with tCA", "text": "as §1, §2, §3"}, "EL4 cell line [3]": {"test_system": "EL4 cell line", "assay": "HCV infection of EL4 cell line with tCDCA-mixed HCV", "format": "cell-based, mouse", "protocol": "(§5) The levels of HCV core and HCV RNA present were measured in each of the HCV-infected cell lines produced and the culture medium collected therefrom. Specifically, measurement of HCV RNA was performed by requesting a specialized inspection agency (Biogeno Korea Co., Ltd., Korea) that utilizes the Roche's COBAS TaqMan system. Here, as a control, a group treated with only HCV without a bile acid derivative was used."}, "MDA-MB-231 cell line [4]": {"test_system": "MDA-MB-231 cell line", "assay": "HBV infection of MDA-MB-231 cell line with tCDCA-mixed HBV", "format": "cell-based, human", "conditions": "HBV mixed with 100 μmol/L tCDCA", "description": "(§4) In addition, […] was performed using an anti-HBcAg antibody, to measure a level of HBcAg present. Specifically, 100 μl/well of anti-HBcAg antibody (10E11) (cat no. MA1-7608; Thermo Fisher, USA) was added to a micro ELISA plate, and the reaction was allowed to proceed at 4° C. overnight. Then, 200 μl/well of 1× ELISA/ELISPOT Diluent (Invitrogen, USA) was additionally added thereto, and the reaction was allowed to proceed for 1 hour. Each of the HBV-infected cell lines produced was dispensed into each well, in which the reaction had been completed, and the reaction was allowed to proceed for 2 hours. Then, the anti-HBcAg antibody (10E11) diluted in a ratio of 1:30 with 100 μl of 1× ELISA/ELISPOT Diluent was added to the plate, and the reaction was allowed to proceed for 1 hour. Then, the additional reaction with 100 μl of HRP-conjugated anti-rabbit IgG was allowed to proceed for 30 minutes. Here, as a positive control, PLC/PRF5 cell line (human liver-derived cell line that releases HBV surface antigen) was used, and levels of HBsAg and HBcAg present therein were measured."}, "MDA-MB-231 cell line [5]": {"test_system": "MDA-MB-231 cell line", "assay": "HCV infection of MDA-MB-231 cell line with tCDCA-mixed HCV", "format": "cell-based, human"}, "HepG2 cell line [6]": {"test_system": "HepG2 cell line", "assay": "HBV infection of HepG2 cell line with tCDCA-mixed HBV", "format": "cell-based, human", "conditions": "HBV mixed with 100 μmol/L tCDCA", "description": "as §4"}, "HepG2 cell line [7]": {"test_system": "HepG2 cell line", "assay": "HCV infection of HepG2 cell line with tCDCA-mixed HCV", "format": "cell-based, human"}, "HeLa cell line": {"test_system": "HeLa cell line", "assay": "HBV infection of HeLa cell line with tCDCA-mixed HBV", "format": "cell-based, human", "conditions": "HBV mixed with 100 μmol/L tCDCA", "description": "as §4"}, "Jurkat cell line [8]": {"test_system": "Jurkat cell line", "assay": "HBV infection of Jurkat cell line with tCDCA-mixed HBV", "format": "cell-based, human", "conditions": "HBV mixed with 100 μmol/L tCDCA", "description": "as §4"}, "A498 cell line [9]": {"test_system": "A498 cell line", "assay": "HBV infection of A498 cell line with tCDCA-mixed HBV", "format": "cell-based, human", "conditions": "HBV mixed with 100 μmol/L tCDCA", "description": "as §4"}, "Jurkat cell line [10]": {"test_system": "Jurkat cell line", "assay": "HCV infection of Jurkat cell line with tCDCA-mixed HCV", "format": "cell-based, human", "protocol": "as §5"}, "A549 cell line": {"test_system": "A549 cell line", "assay": "HCV infection of A549 cell line with tCDCA-mixed HCV", "format": "cell-based, human"}, "Huh-7 cell line [11]": {"test_system": "Huh-7 cell line", "assay": "HCV infection of Huh-7 cell line with tCDCA-mixed HCV", "format": "cell-based, human", "protocol": "as §5"}, "Hepa1c1c7 cell line [12]": {"test_system": "Hepa1c1c7 cell line", "assay": "HBV infection of Hepa1c1c7 cell line with tCDCA-mixed HBV", "format": "cell-based, mouse", "conditions": "HBV mixed with 100 μmol/L tCDCA", "description": "as §4"}, "H4-II-E cell line [13]": {"test_system": "H4-II-E cell line", "assay": "HBV infection of H4-II-E cell line with tCDCA-mixed HBV", "format": "cell-based, rat", "conditions": "HBV mixed with 100 μmol/L tCDCA", "description": "as §4"}, "LC540 cell line [14]": {"test_system": "LC540 cell line", "assay": "HBV infection of LC540 cell line with tCDCA-mixed HBV", "format": "cell-based, rat", "conditions": "HBV mixed with 100 μmol/L tCDCA", "description": "as §4"}, "EL4 cell line [15]": {"test_system": "EL4 cell line", "assay": "HBV infection of EL4 cell line with tCDCA-mixed HBV", "format": "cell-based, mouse", "conditions": "HBV mixed with 100 μmol/L tCDCA", "description": "as §4"}, "A498 cell line [16]": {"test_system": "A498 cell line", "assay": "HCV infection of A498 cell line with tCDCA-mixed HCV", "format": "cell-based, human"}, "LC540 cell line [17]": {"test_system": "LC540 cell line", "assay": "HCV infection of LC540 cell line with tCDCA-mixed HCV", "format": "cell-based, rat", "protocol": "as §5"}, "Huh-7 cell line [18]": {"test_system": "Huh-7 cell line", "assay": "HBV infection of Huh-7 cell line with tCDCA-mixed HBV", "format": "cell-based, human", "conditions": "HBV mixed with 100 μmol/L tCDCA", "description": "as §4"}, "RAG cell line": {"test_system": "RAG cell line", "assay": "HBV infection of RAG cell line with tCDCA-mixed HBV", "format": "cell-based, mouse", "conditions": "HBV mixed with 100 μmol/L tCDCA", "description": "as §4"}},
  "data": [
    {"smiles": "C[C@H](CCC(=O)NCCS(=O)(=O)O)[C@H]1CC[C@H]2[C@@H]3[C@H](O)C[C@@H]4C[C@H](O)CC[C@]4(C)[C@H]3C[C@H](O)[C@]12C", "note": "[tCA, taurocholic acid]", "values": [
      {"measurement": "HCV RNA (IU/ml)", "setting": "Hepa1c1c7 cell line [1]", "value": 3430, "unit": "IU/ml"},
      {"measurement": "HCV RNA (IU/ml)", "setting": "H4-II-E cell line [2]", "value": 197.33, "unit": "IU/ml"}
    ]},
    {"smiles": "C[C@H](CCC(=O)NCCS(=O)(=O)O)[C@H]1CC[C@H]2[C@@H]3[C@H](O)C[C@@H]4C[C@H](O)CC[C@]4(C)[C@H]3CC[C@]12C", "note": "[tCDCA, taurochenodeoxycholic acid]", "values": [
      {"measurement": "HCV RNA (IU/ml)", "setting": "EL4 cell line [3]", "value": 1669, "unit": "IU/ml"},
      {"measurement": "HBV DNA (copies/ml)", "setting": "MDA-MB-231 cell line [4]", "value": 116, "unit": "copies/ml"},
      {"measurement": "HBsAg (Index)", "setting": "MDA-MB-231 cell line [4]", "value": 169, "unit": "Index"},
      {"measurement": "HBcAg (Index)", "setting": "MDA-MB-231 cell line [4]; FACS", "value": 87.4, "unit": "%"},
      {"measurement": "HCV RNA (IU/ml)", "setting": "MDA-MB-231 cell line [5]", "value": 605, "unit": "IU/ml"},
      {"measurement": "HBV DNA (copies/ml)", "setting": "HepG2 cell line [6]", "value": "3,590,000 ± 1,010,000 copies/ml"},
      {"measurement": "HBsAg (Index)", "setting": "HepG2 cell line [6]", "value": "474.70 ± 176.30", "unit": "Index"},
      {"measurement": "HBcAg (Index)", "setting": "HepG2 cell line [6]; FACS", "value": 61.6, "unit": "%"},
      {"measurement": "HCV RNA (IU/ml)", "setting": "HepG2 cell line [7]", "value": 85.233, "unit": "IU/ml"},
      {"measurement": "HBV DNA (copies/ml)", "setting": "HeLa cell line", "value": 359, "unit": "copies/ml"},
      {"measurement": "HBsAg (Index)", "setting": "HeLa cell line", "value": 61.35, "unit": "Index"},
      {"measurement": "HBcAg (Index)", "setting": "HeLa cell line; FACS", "value": 89.6, "unit": "%"},
      {"measurement": "HBV DNA (copies/ml)", "setting": "Jurkat cell line [8]", "value": "868,000 ± 88,963 copies/ml"},
      {"measurement": "HBsAg (Index)", "setting": "Jurkat cell line [8]", "value": "1081 ± 329", "unit": "Index"},
      {"measurement": "HBcAg (Index)", "setting": "Jurkat cell line [8]; FACS", "value": 37.5, "unit": "%"},
      {"measurement": "HBV DNA (copies/ml)", "setting": "A498 cell line [9]", "value": "73,500 ± 23,292 copies/ml"},
      {"measurement": "HBsAg (Index)", "setting": "A498 cell line [9]", "value": "5.12 ± 0.19", "unit": "Index"},
      {"measurement": "HBcAg (Index)", "setting": "A498 cell line [9]; FACS", "value": 67.1, "unit": "%"},
      {"measurement": "HCV RNA (IU/ml)", "setting": "Jurkat cell line [10]", "value": 3326.667, "unit": "IU/ml"},
      {"measurement": "HCV RNA (IU/ml)", "setting": "A549 cell line", "value": 4550, "unit": "IU/ml"},
      {"measurement": "HCV RNA (IU/ml)", "setting": "Huh-7 cell line [11]", "value": 628.066, "unit": "IU/ml"},
      {"measurement": "HBV DNA (copies/ml)", "setting": "Hepa1c1c7 cell line [12]", "value": "7,036,667 copies/ml"},
      {"measurement": "HBsAg (Index)", "setting": "Hepa1c1c7 cell line [12]", "value": "508.26 ± 107.6", "unit": "Index"},
      {"measurement": "HBcAg (Index)", "setting": "Hepa1c1c7 cell line [12]; FACS", "value": 77.1, "unit": "%"},
      {"measurement": "HBV DNA (copies/ml)", "setting": "H4-II-E cell line [13]", "value": "73,000 ± 51,929 copies/ml"},
      {"measurement": "HBsAg (Index)", "setting": "H4-II-E cell line [13]", "value": "22.73 ± 4.39", "unit": "Index"},
      {"measurement": "HBcAg (Index)", "setting": "H4-II-E cell line [13]; FACS", "value": 32.6, "unit": "%"},
      {"measurement": "HBV DNA (copies/ml)", "setting": "LC540 cell line [14]", "value": "149,000 ± 29,866 copies/ml"},
      {"measurement": "HBsAg (Index)", "setting": "LC540 cell line [14]", "value": "3.06 ± 0.44", "unit": "Index"},
      {"measurement": "HBV DNA (copies/ml)", "setting": "EL4 cell line [15]", "value": "673,000 ± 60,053 copies/ml"},
      {"measurement": "HBsAg (Index)", "setting": "EL4 cell line [15]", "value": "192.7 ± 30.60", "unit": "Index"},
      {"measurement": "HBcAg (Index)", "setting": "EL4 cell line [15]; FACS", "value": 66.9, "unit": "%"},
      {"measurement": "HCV RNA (IU/ml)", "setting": "A498 cell line [16]", "value": 610, "unit": "IU/ml"},
      {"measurement": "HCV RNA (IU/ml)", "setting": "LC540 cell line [17]", "value": 21.7, "unit": "IU/ml"},
      {"measurement": "HBV DNA (copies/ml)", "setting": "Huh-7 cell line [18]", "value": "89,000 ± 1,836 copies/ml"},
      {"measurement": "HBsAg (Index)", "setting": "Huh-7 cell line [18]", "value": "26.02 ± 5.97", "unit": "Index"},
      {"measurement": "HBcAg (Index)", "setting": "Huh-7 cell line [18]; FACS", "value": 69.8, "unit": "%"},
      {"measurement": "HBV DNA (copies/ml)", "setting": "RAG cell line", "value": "11,700 (622, 000) copies/ml"},
      {"measurement": "HBsAg (Index)", "setting": "RAG cell line", "value": "21 (744) Index"},
      {"measurement": "HBcAg (Index)", "setting": "RAG cell line; FACS", "value": 76.6, "unit": "%"}
    ]}
  ]
}
